Holding throughout (format): biochemical
Test [1] deals with T1, complex I (NADH/ubiquinone oxidoreductase) (Escherichia coli, UniProt P0AFC7+P0AFD4+P31979+P33599).
T1 construct: gene nuoB; 13-subunit complex, about 550 kDa, NuoF His6-tagged (pBADnuo nuoFHis6) expressed in BW25113 delta-nuo delta-ndh; DDM-purified, in proteoliposomes or in membranes; with NADH-quinone oxidoreductase subunit A; NADH-quinone oxidoreductase subunit E; NADH-quinone oxidoreductase subunit G; NADH-quinone oxidoreductase subunit I; NADH-quinone oxidoreductase subunit J; NADH-quinone oxidoreductase subunit K; NADH-quinone oxidoreductase subunit L; NADH-quinone oxidoreductase subunit M; NADH-quinone oxidoreductase subunit N
Kind of test: NADH absorbance at […] nm, proteoliposomes. Conditions: 100 µM NADH, 60 µM decyl-ubiquinone, 5 mM MES/NaOH, 50 mM KCl, 2 mM MgCl2, pH 6.0, 30 °C.

For test [2], the target named is T2, ENC-spoT (encapsulin SpoT) (Escherichia coli, UniProt P0AG24).
T2 construct: N-terminal 6xHis tag, C-terminal 30-residue DyP-peroxidase cargo tag; co-expressed in E. coli BL21-AI inside Mycolicibacterium hassiacum encapsulin nanocage
T2 sequence (P0AG24 whole entry): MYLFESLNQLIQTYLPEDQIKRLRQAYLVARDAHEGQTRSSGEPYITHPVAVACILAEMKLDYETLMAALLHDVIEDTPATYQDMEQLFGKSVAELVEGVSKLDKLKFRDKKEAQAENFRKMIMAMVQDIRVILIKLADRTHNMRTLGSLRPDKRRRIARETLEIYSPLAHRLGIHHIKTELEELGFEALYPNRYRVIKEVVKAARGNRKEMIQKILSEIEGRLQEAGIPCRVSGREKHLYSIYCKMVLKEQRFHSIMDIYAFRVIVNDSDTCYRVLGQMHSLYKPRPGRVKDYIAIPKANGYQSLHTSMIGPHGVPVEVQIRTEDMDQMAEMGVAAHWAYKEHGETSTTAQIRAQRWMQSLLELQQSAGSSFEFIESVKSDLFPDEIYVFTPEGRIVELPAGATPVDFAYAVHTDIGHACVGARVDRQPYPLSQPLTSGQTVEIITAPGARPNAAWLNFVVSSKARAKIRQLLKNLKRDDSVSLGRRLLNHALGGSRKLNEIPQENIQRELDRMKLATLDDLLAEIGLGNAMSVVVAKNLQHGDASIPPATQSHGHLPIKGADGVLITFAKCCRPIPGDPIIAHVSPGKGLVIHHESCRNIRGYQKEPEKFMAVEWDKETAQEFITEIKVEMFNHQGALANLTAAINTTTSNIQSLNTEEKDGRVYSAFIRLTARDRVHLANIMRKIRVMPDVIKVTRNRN
Briefly: HPLC-UV ([…] nm) ppGpp hydrolysis. As to conditions: 1 mM ppGpp, 1 mM manganese, cytosolic buffer with 250 mM imidazole and 0.1% triton-X100, 25 °C, pH varied; enzyme encapsulated in nanocage.

Another test has as its target T3, 6His-SpoT (Escherichia coli, UniProt P0AG24).
T3 construct: full-length with N-terminal His tag (pETM11-SpoT), expressed in E. coli BL21 (DE3) pLysS, Ni-Sepharose purified
Briefly: HPLC-UV ([…] nm) ppGpp hydrolysis. As to conditions: 1 mM ppGpp, 1 mM manganese, cytosolic buffer with 250 mM imidazole, 25 °C, pH varied; free enzyme.

T3 sequence (P0AG24 whole entry): as above

Take `NC(=O)C1=CN([C@@H]2O[C@H](COP(=O)(O)OP(=O)(O)OC[C@H]3O[C@@H](n4cnc5c(N)ncnc54)[C@H](O)[C@@H]3O)[C@@H](O)[C@H]2O)C=CC1` [NADH]: the “NADH absorbance at 340 nm, proteoliposomes” value in test [1] was “liposomes reconstituted with wild-type complex I and the variants oxidized NADH at a similar rate”.
Same read-out and setting: as for `CCCCCCCCCCC1=C(C)C(=O)C(OC)=C(OC)C1=O` [decyl ubiquinone], the entry is “NADH/decyl ubiquinone oxidoreduction was followed by monitoring the decreasing NADH concentration”.
Regarding `Nc1nc2c(ncn2[C@@H]2O[C@H](COP(=O)(O)OP(=O)(O)O)[C@@H](OP(=O)(O)OP(=O)(O)O)[C@H]2O)c(=O)[nH]1` [ppGpp], the “HPLC-UV (260 nm) ppGpp hydrolysis” value is “We used both the encapsulated SpoT and regularly purified SpoT” in test [2]; “SpoT hydrolyzes ppGpp to GDP, and that manganese ions are necessary for hydrolysis” on 6His-SpoT.

The values are drawn from PMC8795404, “Mutations in respiratory complex I promote antibiotic persistence through alterations in intracellular acidity and protein synthesis” (Nature Communications, 2022).
